# Assays:
# Experiment in all cases: Bliss excess, mean over the matrix (fraction); higher = more synergy
# GI-ME-N (Neuroblastoma) = test system: GI-ME-N (Neuroblastoma)
# Summary of the method: (§1)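 Cell lines in DMEM/F12 or RPMI with 10% FBS were plated in 1536-well plates, held 24 hours at 37°C, 5% CO2, then given two-drug dose matrices for 72 hours (DMSO typically 0.2%). Viability was read by CellTiter-Glo 2.0 luminescence and scaled as inhibition from 0 (vehicle wells) to 1 (blank wells). Combination Emax is the second-highest inhibition in the matrix; Bliss excess is observed combination effect minus expected EA + EB − EA·EB, EA and EB being single-agent effects.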
# PA-1 (Ovarian Carcinoma) = test system: PA-1 (Ovarian Carcinoma)
# Summary of the method: as §1
# A498 (Kidney Carcinoma) = test system: A498 (Kidney Carcinoma)
# Summary of the method: as §1
# [1] = test system: COLO-824 (Breast Carcinoma)
# Summary of the method: as §1
# [2] = test system: NCI-H1650 (Lung Adenocarcinoma)
# Summary of the method: as §1
# [3] = test system: SISO (Cervical Carcinoma)
# Summary of the method: as §1
# [4] = test system: BICR22 (Oral Cavity Carcinoma)
# Summary of the method: as §1
# IGR-37 (Melanoma) = test system: IGR-37 (Melanoma)
# Summary of the method: as §1
# [5] = test system: CAL-29 (Bladder Carcinoma)
# Summary of the method: as §1
# [6] = test system: SK-MES-1 (Squamous Cell Lung Carcinoma)
# Summary of the method: as §1
# [7] = test system: OS-RC-2 (Kidney Carcinoma)
# Summary of the method: as §1
# [8] = test system: CAPAN-2 (Pancreatic Carcinoma)
# Summary of the method: as §1
# [9] = test system: PANC-10-05 (Pancreatic Carcinoma)
# Summary of the method: as §1
# [10] = test system: COLO-320-HSR (Colorectal Carcinoma)
# Summary of the method: as §1
# [11] = test system: NCI-H2066 (Squamous Cell Lung Carcinoma)
# Summary of the method: as §1
# [12] = test system: NCI-H64 (Small Cell Lung Carcinoma)
# Summary of the method: as §1
# [13] = test system: KARPAS-422 (B-Cell Non-Hodgkin's Lymphoma)
# Summary of the method: as §1
# LN-405 (Glioblastoma) = test system: LN-405 (Glioblastoma)
# Summary of the method: as §1
# [14] = test system: ONS-76 (Other Solid Carcinomas)
# Summary of the method: as §1
# ARH-77 (Non-Cancerous) = test system: ARH-77 (Non-Cancerous)
# Summary of the method: as §1
SMILES,Bliss excess (GI-ME-N (Neuroblastoma)),Bliss excess (PA-1 (Ovarian Carcinoma)),Bliss excess (A498 (Kidney Carcinoma)),Bliss excess [1],Bliss excess [2],Bliss excess [3],Bliss excess [4],Bliss excess (IGR-37 (Melanoma)),Bliss excess [5],Bliss excess [6],Bliss excess [7],Bliss excess [8],Bliss excess [9],Bliss excess [10],Bliss excess [11],Bliss excess [12],Bliss excess [13],Bliss excess (LN-405 (Glioblastoma)),Bliss excess [14],Bliss excess (ARH-77 (Non-Cancerous))
"NC1(C(=O)N[C@@H](CCO)c2ccc(Cl)cc2)CCN(c2ncnc3[nH]ccc23)CC1 [Capivasertib] + CC(=O)c1c(C)c2cnc(Nc3ccc(N4CCNCC4)cn3)nc2n(C2CCCC2)c1=O [Palbociclib] (first compound max 10 µM, 7x7, partner max 10 µM)",-0.0823,0.0288,-0.0294,-0.0495,-0.0223,0.0057,-0.0329,-0.0344,0.0198,0.0137,0.0249,-0.0164,-0.0526,-0.0013,-0.033,-0.0332,-0.012,-0.0295,0.027,-0.0211
"NC1(C(=O)N[C@@H](CCO)c2ccc(Cl)cc2)CCN(c2ncnc3[nH]ccc23)CC1 [Capivasertib] + CC(C)n1c(=O)n(C)c2cnc3cc(F)c(-c4ccc(OCCCN5CCCCC5)nc4)cc3c21 [AZD1390] (first compound max 10 µM, 7x7, partner max 0.3 µM)",-0.0993,-0.102,-0.0632,-0.0137,-0.0219,-0.0782,-0.018,-0.0528,-0.0702,-0.0874,-0.0779,-0.0651,-0.101,-0.0512,-0.0222,-0.0284,-0.0685,-0.0912,-0.0894,-0.0509
"NC1(C(=O)N[C@@H](CCO)c2ccc(Cl)cc2)CCN(c2ncnc3[nH]ccc23)CC1 [Capivasertib] + CCN(CCO)CCCOc1ccc2c(Nc3cc(CC(=O)Nc4cccc(F)c4)[nH]n3)ncnc2c1 [AZD2811] (first compound max 10 µM, 7x7, partner max 1 µM)",-0.0557,0.0219,-0.0548,-0.0183,0.0052,0.0229,-0.0012,0.0123,-0.0319,0.0121,-0.0136,-0.0213,-0.0943,-0.0018,-0.0641,0.0427,-0.0291,-0.0767,-0.0191,-0.0156
"NC1(C(=O)N[C@@H](CCO)c2ccc(Cl)cc2)CCN(c2ncnc3[nH]ccc23)CC1 [Capivasertib] + COc1nnc2ccc(N3CCC(c4ccc(OCCN5CCN(C)C(=O)[C@H]5C)cc4)CC3)nn12 [AZD5153] (first compound max 10 µM, 7x7, partner max 1 µM)",-0.0309,-0.0386,0.0826,0.0218,0.0322,0.009,0.024,0.0011,0.0937,0.046,0.117,-0.0143,-0.0114,-0.0289,0.0135,-0.0011,-0.0511,-0.013,0.0234,-0.0253
"NC1(C(=O)N[C@@H](CCO)c2ccc(Cl)cc2)CCN(c2ncnc3[nH]ccc23)CC1 [Capivasertib] + C[C@@H]1COCCN1C2=NC(=NC(=C2)C3(CC3)[S@](=N)(=O)C)C4=C5C=CNC5=NC=C4 [AZD6738] (first compound max 10 µM, 7x7, partner max 10 µM)",-0.0269,-0.0938,0.0375,-0.0655,-0.0754,-0.0474,-0.0608,0.0138,-0.069,-0.058,-0.0398,-0.0194,-0.0946,-0.0883,-0.0782,-0.0591,-0.0575,-0.0413,-0.0636,-0.0375
"NC1(C(=O)N[C@@H](CCO)c2ccc(Cl)cc2)CCN(c2ncnc3[nH]ccc23)CC1 [Capivasertib] + Cn1cnc2c(F)c(Nc3ccc(Br)cc3Cl)c(C(=O)NOCCO)cc21 [Selumetinib] (first compound max 10 µM, 7x7, partner max 10 µM)",-0.0544,-0.0114,-0.0108,0.0166,-0.0203,0.0089,0.114,-0.0258,-0.0058,0.0571,-0.0412,0.0332,0.0147,0.0222,-0.0867,-0.0027,0.0608,-0.0051,0.0914,0.0614
"Cc1nc(Nc2ncc(C(=O)Nc3c(C)cccc3Cl)s2)cc(N2CCN(CCO)CC2)n1 [Dasatinib] + CC(=O)Nc1cccc(-n2c(=O)n(C3CC3)c(=O)c3c(Nc4ccc(I)cc4F)n(C)c(=O)c(C)c32)c1 [Trametinib] (first compound max 2 µM, 7x7, partner max 1 µM)",-0.0849,0.013,-0.143,-0.0774,-0.0167,-0.0267,-0.0037,-0.121,0.0133,0.0198,-0.0396,0.0749,0.0735,-0.0492,-0.0033,-0.0498,-0.0371,-0.0347,-0.0206,-0.0311
"COc1cccc2c1C(=O)c1c(O)c3c(c(O)c1C2=O)C[C@@](O)(C(=O)CO)C[C@@H]3O[C@H]1C[C@H](N)[C@H](O)[C@H](C)O1 [Doxorubicin] + Cc1cc2ncnn2cc1Nc1ncc2c(n1)n(C1CCOCC1)c(=O)n2C [AZD7648] (first compound max 1 µM, 7x7, partner max 10 µM)",0.0207,0.0617,0.0163,0.0742,-0.0002,0.0937,0.0744,0.0631,0.0489,0.0477,-0.0114,-0.0419,-0.0557,0.0307,-0.0396,0.0063,0.0699,-0.0125,0.0314,0.0783
"COc1cc2ncnc(Nc3ccc(F)c(Cl)c3)c2cc1OCCCN1CCOCC1 [Gefitinib] + CC(C)n1c(=O)n(C)c2cnc3cc(F)c(-c4ccc(OCCCN5CCCCC5)nc4)cc3c21 [AZD1390] (first compound max 10 µM, 7x7, partner max 0.3 µM)",-0.0827,-0.0949,-0.11,-0.0795,-0.0477,-0.0627,-0.013,-0.0865,-0.104,-0.0755,-0.0817,-0.0652,-0.0835,-0.0398,0.0099,-0.022,-0.0363,-0.076,-0.0386,-0.0785
"CS(=O)(=O)CCNCc1ccc(-c2ccc3ncnc(Nc4ccc(OCc5cccc(F)c5)c(Cl)c4)c3c2)o1 [Lapatinib] + C[C@@H](Oc1cc(-c2cnn(C3CCNCC3)c2)cnc1N)c1c(Cl)ccc(F)c1Cl [Crizotinib] (first compound max 10 µM, 7x7, partner max 10 µM)",-0.0505,0.0128,-0.0592,0.002,0.0253,-0.0214,-0.0388,-0.0432,0.0215,-0.0288,-0.0186,-0.0341,-0.109,-0.0416,-0.0066,-0.0564,-0.0649,-0.0158,-0.0667,-0.0445
"CC(=O)c1c(C)c2cnc(Nc3ccc(N4CCNCC4)cn3)nc2n(C2CCCC2)c1=O [Palbociclib] + CC1(C)CCC(CN2CCN(c3ccc(C(=O)NS(=O)(=O)c4ccc(NCC5CCOCC5)c([N+](=O)[O-])c4)c(Oc4cnc5[nH]ccc5c4)c3)CC2)=C(c2ccc(Cl)cc2)C1 [Venetoclax] (first compound max 10 µM, 7x7, partner max 1 µM)",-0.0514,0.0133,-0.021,0.0365,-0.051,-0.0384,-0.0319,-0.0528,-0.0523,-0.0114,-0.0385,-0.0473,-0.107,-0.0625,-0.027,-0.0185,0.0434,-0.0391,-0.0115,0.0762
"CC(=O)c1c(C)c2cnc(Nc3ccc(N4CCNCC4)cn3)nc2n(C2CCCC2)c1=O [Palbociclib] + Cc1c2c(nn1C)CSCc1cc(n(C)n1)CSc1cc(c3ccccc3c1)OCCCc1c(C(=O)O)n(C)c3c-2c(Cl)ccc13 [AZD5991] (first compound max 10 µM, 7x7, partner max 1 µM)",-0.0873,0.0052,-0.0779,-0.0768,-0.0409,-0.0282,-0.0568,-0.0335,-0.0532,-0.0463,-0.0419,-0.0593,-0.0768,-0.0746,-0.0361,-0.0049,-0.0221,-0.0445,-0.0372,-0.0248

# Source: the supplement of paper PMC11061612
